Each structure is given as a SMILES string.

This assay concerns the target 5-hydroxytryptamine receptor 2A (Rattus norvegicus, UniProt P14842). Put plainly: Binding affinity for 5-hydroxytryptamine 2A receptor, activity is expressed as IC50 values.

5-hydroxytryptamine receptor 2A, sequence (P14842 whole entry): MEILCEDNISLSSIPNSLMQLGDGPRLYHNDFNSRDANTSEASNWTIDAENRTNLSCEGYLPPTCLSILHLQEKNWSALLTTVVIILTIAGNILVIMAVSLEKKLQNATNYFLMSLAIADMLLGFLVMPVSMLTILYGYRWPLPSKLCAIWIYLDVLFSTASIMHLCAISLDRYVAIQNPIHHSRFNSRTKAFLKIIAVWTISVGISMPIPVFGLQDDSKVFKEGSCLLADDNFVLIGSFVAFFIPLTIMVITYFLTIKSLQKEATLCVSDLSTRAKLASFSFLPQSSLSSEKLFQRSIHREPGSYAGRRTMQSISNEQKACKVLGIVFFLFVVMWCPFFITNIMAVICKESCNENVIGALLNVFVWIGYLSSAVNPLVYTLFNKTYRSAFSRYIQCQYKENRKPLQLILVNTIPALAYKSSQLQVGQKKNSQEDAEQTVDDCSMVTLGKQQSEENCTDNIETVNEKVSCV

One may read the IC50 as the concentration needed to halve the response being measured. Higher therefore signals a need for much substance. `CC1(C)CN(C2CC(c3ccc(F)cc3)c3ccc(Cl)cc32)CCN1` (stereo unspecified) [1-[6-Chloro-3-(4-fluoro-phenyl)-indan-1-yl]-3,3-dimethyl-piperazine] gave a concentration for half-maximal inhibition (IC50) of 3.2 nM.
